The record followed here is ChEMBL document CHEMBL1123587, “Nucleosides. 139. Synthesis and anticytomegalovirus and antiherpes simplex virus activity of 5'-modified analogues of 2'-fluoroarabinosylpyrimidine nucleosides” (1987).

pEC50, pIC50: −log10 of the molar value.

Holding throughout (format): functional
The test system of assay [1] is Human alphaherpesvirus 1. Nature of the assay: Effective concentration required to inhibit replication of strain F of HSV-1 by 50%. The note with it: read-out: ED50 (the source's name).
Assay [2] concerns Human alphaherpesvirus 1. As to the kind of experiment: Effective concentration required to inhibit replication of strain F of HSV-1 by 90%.
The test system of assay [3] is Human alphaherpesvirus 2. As to the kind of experiment: Effective concentration required to inhibit replication of strain G of HSV-2 by 90%.
A further assay has as its system Vero. As to the kind of experiment: Compound was evaluated for cytotoxicity in rapidly dividing Vero cells. The note with it: Chlorocebus sabaeus, read-out: ID50 (the source's name).
In assay [4] the test system is Human alphaherpesvirus 2. As to the kind of experiment: Effective concentration required to inhibit replication of strain G of HSV-2 by 50%. The note with it: read-out: ED50 (the source's name).

As to `O=c1[nH]c(=O)n([C@@H]2O[C@H](CO)C(O)C2F)cc1I` (single isomer, unassigned) [FIALURIDINE], the figures for the pEC50 with Human alphaherpesvirus 1 [1] and in the assay with Human alphaherpesvirus 2 [4] were 7.92 and 8.00, respectively. Also, the ED90 in the assay on Human alphaherpesvirus 1 [2] amounted to 0.041 µM; in the assay on Human alphaherpesvirus 2 [3], 0.045 µM. In the assay on Vero, the pIC50 was 4.99.
Turning to `Cc1cn([C@@H]2OC(CN)[C@H](O)[C@H]2F)c(=O)[nH]c1=O` (stereo not given in full), the pEC50 is 6.11 in the assay on Human alphaherpesvirus 1 [1] and 5.25 in the assay with Human alphaherpesvirus 2 [4]. The ED90 in the assay with Human alphaherpesvirus 1 [2] stood at 3 µM; in the assay with Human alphaherpesvirus 2 [3], 14 µM. Moreover, the pIC50 in the assay on Vero is 5.17.
Consider `NCC1O[C@@H](n2cc(I)c(=O)[nH]c2=O)[C@H](F)[C@H]1O` (stereo not given in full), for which the pEC50 in the assay with Human alphaherpesvirus 1 [1] is 3.97; in the assay with Human alphaherpesvirus 2 [4], less than 3.70. Further, the ED90 in the assay on Human alphaherpesvirus 1 [2] and in the assay on Human alphaherpesvirus 2 [3] was more than 200 µM throughout. For the same molecule, the pIC50 in the assay on Vero is less than 3.70.
As to `CC1O[C@@H](n2ccc(=O)[nH]c2=O)[C@H](F)[C@H]1O` (stereo not given in full), the pEC50 with Human alphaherpesvirus 1 [1] was 3.46; with Human alphaherpesvirus 2 [4], 3.65. The ED90 in the assay on Human alphaherpesvirus 1 [2] amounted to 538 µM; in the assay with Human alphaherpesvirus 2 [3] it was 379 µM. In addition, the pIC50 in the assay on Vero is 3.48.
For the molecule `CC1O[C@@H](n2cc(I)c(N)nc2=O)[C@H](F)[C@H]1O` (stereo not given in full), the pEC50 in the assay on Human alphaherpesvirus 1 [1] and in the assay on Human alphaherpesvirus 2 [4] was less than 3.40 each time. The ED90 in the assay on Human alphaherpesvirus 1 [2] and in the assay with Human alphaherpesvirus 2 [3] was more than 400 µM in each case. For the same molecule, in the assay on Vero, the pIC50 was less than 3.40.
On to `Cc1cn([C@@H]2O[C@H](CO)C(O)C2F)c(=O)[nH]c1=O` (single isomer, unassigned) [5-METHYL-2'-FLUOROARAURACIL], for which the figures for the pEC50 in the assay on Human alphaherpesvirus 1 [1] and with Human alphaherpesvirus 2 [4] were 7.74 and 7.64, respectively. Besides, the ED90 with Human alphaherpesvirus 1 [2] came to 0.047 µM; with Human alphaherpesvirus 2 [3], 0.09 µM. Moreover, in the assay with Vero, the pIC50 was 5.55.
As to `NCC1O[C@@H](n2cc(I)c(N)nc2=O)[C@H](F)[C@H]1O` (stereo not given in full), the pEC50 in the assay with Human alphaherpesvirus 1 [1] is 3.69; in the assay on Human alphaherpesvirus 2 [4] it was less than 3.40. Further, the ED90 was 480 µM in the assay with Human alphaherpesvirus 1 [2] and more than 400 µM in the assay with Human alphaherpesvirus 2 [3]. The pIC50 in the assay on Vero is less than 3.40.
For `CC1O[C@@H](n2ccc(N)nc2=O)[C@H](F)[C@H]1O` (stereo not given in full), the pEC50 in the assay with Human alphaherpesvirus 1 [1] is 4.88; in the assay on Human alphaherpesvirus 2 [4], 4.77. Moreover, the figures for the ED90 in the assay on Human alphaherpesvirus 1 [2] and in the assay on Human alphaherpesvirus 2 [3] were 35.9 µM and 45.5 µM, respectively. The pIC50 in the assay with Vero is 3.65.
With `Nc1nc(=O)n([C@@H]2OC(CS)[C@H](O)[C@H]2F)cc1I` (stereo not given in full), the results for the pEC50 in the assay with Human alphaherpesvirus 1 [1] and in the assay on Human alphaherpesvirus 2 [4] were 3.67 and less than 3.70, respectively. Besides, the ED90 in the assay on Human alphaherpesvirus 1 [2] was 444 µM; in the assay with Human alphaherpesvirus 2 [3], more than 200 µM. Further, in the assay with Vero, the pIC50 is 3.47.
For the molecule `CC1O[C@@H](n2cc(I)c(=O)[nH]c2=O)[C@H](F)[C@H]1O` (stereo not given in full), the pEC50 in the assay with Human alphaherpesvirus 1 [1] was 3.66; with Human alphaherpesvirus 2 [4], 3.87. Besides, the ED90 with Human alphaherpesvirus 1 [2] was determined as 384 µM; with Human alphaherpesvirus 2 [3], 290 µM. Also, in the assay with Vero, the pIC50 was less than 3.40.
`Nc1nc(=O)n([C@@H]2O[C@H](CO)C(O)C2F)cc1I` (single isomer, unassigned) [FIACITABINE]: the pEC50 with Human alphaherpesvirus 1 [1] is 7.64; in the assay with Human alphaherpesvirus 2 [4] it was 7.52. In addition, the ED90 in the assay on Human alphaherpesvirus 1 [2] stood at 0.048 µM; with Human alphaherpesvirus 2 [3], 0.08 µM. Further, the pIC50 in the assay on Vero was 4.66.
With `Cc1cn([C@@H]2OC(CS)[C@H](O)[C@H]2F)c(=O)[nH]c1=O` (stereo not given in full), the pEC50 in the assay on Human alphaherpesvirus 1 [1] and in the assay with Human alphaherpesvirus 2 [4] was less than 3.70 throughout. For the same molecule, the ED90 in the assay with Human alphaherpesvirus 1 [2] and in the assay with Human alphaherpesvirus 2 [3] was more than 200 µM throughout. The pIC50 with Vero is 3.50.
For `Cc1cn([C@@H]2OC(C)[C@H](O)[C@H]2F)c(=O)[nH]c1=O` (stereo not given in full), the pEC50 in the assay on Human alphaherpesvirus 1 [1] is 4.51; in the assay with Human alphaherpesvirus 2 [4] it was 3.76. Besides, the values for the ED90 in the assay on Human alphaherpesvirus 1 [2] and with Human alphaherpesvirus 2 [3] were 298 µM and 493 µM, respectively. Besides, the pIC50 in the assay on Vero was 3.67.
